Assay results from PMC10056899, “Neuroprotective and Antiherpetic Properties of Polyphenolic Compounds from Maackia amurensis Heartwood” (Molecules, 2023).
Several values for one entry are separate records, joined by “and”; a condition that tells them apart may be missing. Equal entries are not always repeated.

Key:
[1] = Ferric reducing antioxidant power (FRAP) assay; details: 4 min, pH 3.6
Experimental: The FRAP assay was carried out as described in [41]. We prepared FRAP reagent by mixing 2.5 mL of TPTZ (2,4,6-tris(2-pyridyl)-s-triazine) solution (10 mM) in 40 mM HCl and […] of FeCl3 solution (20 mM) in acetate buffer solution (300 mM, pH 3.6). Then, we added stilbenes 1–6 to 3 mL of FRAP reagent at concentrations from 1 to 34 µM. The mixture was kept in the dark at room temperature for 4 min. Then, we measured the absorbance at 595 nm using a Shimadzu UV 1240 spectrophotometer. Equation (2) was used to calculate the FRAP values of stilbenes 1–6:(2) FRAP=CFe/Cx, where: • CFe is the concentration of Fe^2+ (µM) formed in the reaction; • Cx is the concentration of polyphenolic compounds in the reacting mixture.
The concentration of Fe^2+ (µM) formed in the reaction was determined using the calibration curve obtained for different concentrations of FeSO4·7H2O.

[2] = system: PQ-treated Neuro-2a cells; assay: Intracellular ROS level in PQ-treated cells (H2DCF-DA); assay type: cell-based, murine; details: 10 μM, PQ 1 mM
Experimental: After 24 h of adhesion, Neuro-2a cells (1 × 10^4 cells/well) were incubated with stilbenes (0.01–10 µM) for 1 h. After that, we added PQ (1 mM) to each well and incubated the cells for 3 h. To study ROS formation, we added 20 µL of 2,7-dichlorodihydrofluorescein diacetate solution ([…], H2DCF-DA, Molecular Probes, Eugene, OR, USA) to each well, so that the concentration was 10 µM, and kept the microplate in a CO2–incubator for additional 30 min at 37 °C.

[3] = Cytotoxicity against Vero cells (MTT assay); assay type: cell-based; details: African green monkey (Chlorocebus sp.)
Experimental: The HSV-1 strain L2 and Vero cell culture (kidney epithelial cells of the African green monkey Chlorocebus sp.) were obtained from the N.F. Gamaleya Federal Research Centre for Epidemiology and Microbiology (Moscow, Russia). HSV-1 was grown in Vero cells, using Dulbecco′s Modified Eagle′s Medium (DMEM, Biolot, St. Petersburg, Russia) supplemented with 10% fetal bovine serum (FBS, Biolot, St. Petersburg, Russia) and 100 U/mL of gentamycin (Dalkhimpharm, Khabarovsk, Russia), at 37 °C in a CO2 incubator. In the maintenance medium, the FBS concentration was decreased to 1%.
The tested compounds were dissolved in DMSO (Sigma, St. Louis, MO, USA) at a concentration 10 mg/mL and stored at −20 °C. For cytotoxicity and anti-HSV-1 activity determination, the stock solutions were diluted with DMEM so that the final concentration of DMSO was 0.5%.
The cytotoxicity evaluation of the studied compounds was performed using the MTT assay, as described previously. In brief, confluent Vero cells in 96-well microplates (1 × 10^4 cells/well) were incubated with tested compounds at various concentrations (1–500 μg/mL) at 37 °C for 48 h (5% CO2). Untreated cells were used as controls. Then, MTT solution (methylthiazolyltetrazolium bromide, Sigma, St. Louis, MO, USA) was added to cells at a concentration of 5 mg/mL and the cells were incubated at 37 °C for 2 h. After dissolution of formazan crystals, optical densities were read at 540 nm (Labsystems Multiskan RC, Vantaa, Finland). […] [42]. Experiments were performed in triplicate and repeated three times.

[4] = system: PQ-treated Neuro-2a cells; assay: Mitochondrial membrane potential in PQ-treated cells (TMRM); assay type: cell-based, murine; details: 10 μM
Experimental: […] Then, we added PQ (500 μM) and kept the cell suspension in a CO2-incubator for 1 h. Cells incubated without PQ and stilbenes and with PQ only were used as positive and negative control, respectively. We added the tetramethylrhodamine methyl (TMRM) (Sigma-Aldrich, St. Louis, MO, USA) solution (500 nM) to each well and kept the cells for 30 min in a CO2-incubator at 37 °C. The intensity of fluorescence was measured with a PHERAstar […] reader (BMG Labtech, Ortenberg, Germany) at λex = 540 nm and λem = 590 nm. We processed the data by MARS Data Analysis v. 3.01R2 (BMG Labtech, Ortenberg, Germany) and presented the results as percentages of the positive control value.

SMILES | FRAP CFe2+(µM)/Cpolyphenolic compound (µM) [1] | FRAP CFe2+(µM)/Cpolyphenolic compound (μkg/mL) [1] | Reduction of intracellular ROS level in PQ-treated cells [2] | CC50 at 48 h [3] | Increase of mitochondrial membrane potential compared to PQ-treated cells [4]
COc1ccc([C@@H]2COc3cc(O)ccc3[C@H]2c2c(O)cc(O)cc2/C=C/c2ccc(O)c(O)c2)c(O)c1 [Compound 1] | 12.36 ± 1.38 CFe2+(µM)/Cpolyphenolic compound (µM) | 24.04 ± 2.68 CFe2+(µM)/Cpolyphenolic compound (μkg/mL) | 17% | 162 µg/mL and 316 µM | –
Oc1ccc(/C=C/c2cc(O)cc3c2[C@H](c2cc(O)cc(O)c2)[C@@H](c2ccc(O)c(O)c2)O3)cc1 [Compound 4, scirpusin A] | 11.44 ± 1.41 CFe2+(µM)/Cpolyphenolic compound (µM) | 24.34 ± 3.00 CFe2+(µM)/Cpolyphenolic compound (μkg/mL) | 7% | 199 µg/mL and 424 µM | 26%
